Reference: ChEMBL document CHEMBL1127910, “Structural basis for the differential RXR & RAR activity of stilbene retinoid analogs” (Bioorg Med Chem Lett, 1994)

Experiments:
[1] = biological target: T1, Retinoic acid receptor alpha (Homo sapiens, UniProt P10276); test: Transcriptional activation for RAR alpha receptor
T1 sequence (P10276 whole entry): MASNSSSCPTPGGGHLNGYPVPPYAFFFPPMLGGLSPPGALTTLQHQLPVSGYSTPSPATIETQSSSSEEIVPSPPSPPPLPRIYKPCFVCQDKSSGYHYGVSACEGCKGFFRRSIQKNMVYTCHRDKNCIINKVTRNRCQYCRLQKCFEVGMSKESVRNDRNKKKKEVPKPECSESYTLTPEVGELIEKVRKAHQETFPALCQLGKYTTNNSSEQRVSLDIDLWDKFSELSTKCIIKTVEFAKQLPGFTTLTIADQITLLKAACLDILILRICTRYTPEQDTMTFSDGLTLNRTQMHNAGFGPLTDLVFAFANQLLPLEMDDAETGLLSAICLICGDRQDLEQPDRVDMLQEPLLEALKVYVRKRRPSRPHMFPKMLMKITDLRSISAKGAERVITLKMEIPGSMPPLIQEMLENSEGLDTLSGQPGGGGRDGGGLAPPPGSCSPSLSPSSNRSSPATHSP

[2] = biological target: T2, Retinoic acid receptor beta (Homo sapiens, UniProt P10826); test: Transcriptional activation for RAR beta receptor
T2 sequence (P10826 whole entry): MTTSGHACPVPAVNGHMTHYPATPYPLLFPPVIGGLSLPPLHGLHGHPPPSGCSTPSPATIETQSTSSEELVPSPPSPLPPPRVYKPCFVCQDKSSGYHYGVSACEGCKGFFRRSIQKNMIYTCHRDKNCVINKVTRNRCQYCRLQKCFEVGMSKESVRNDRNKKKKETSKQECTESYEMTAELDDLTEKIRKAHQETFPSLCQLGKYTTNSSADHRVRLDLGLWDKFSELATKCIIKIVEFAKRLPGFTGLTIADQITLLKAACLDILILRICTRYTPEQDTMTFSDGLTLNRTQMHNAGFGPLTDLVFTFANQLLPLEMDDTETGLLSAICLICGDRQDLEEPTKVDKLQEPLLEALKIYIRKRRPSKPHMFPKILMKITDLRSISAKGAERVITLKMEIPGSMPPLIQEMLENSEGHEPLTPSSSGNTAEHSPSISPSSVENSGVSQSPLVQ

[3] = biological target: T3, Retinoic acid receptor gamma (Homo sapiens, UniProt P13631); test: Transcriptional activation for RAR gamma receptor
T3 sequence (P13631 whole entry): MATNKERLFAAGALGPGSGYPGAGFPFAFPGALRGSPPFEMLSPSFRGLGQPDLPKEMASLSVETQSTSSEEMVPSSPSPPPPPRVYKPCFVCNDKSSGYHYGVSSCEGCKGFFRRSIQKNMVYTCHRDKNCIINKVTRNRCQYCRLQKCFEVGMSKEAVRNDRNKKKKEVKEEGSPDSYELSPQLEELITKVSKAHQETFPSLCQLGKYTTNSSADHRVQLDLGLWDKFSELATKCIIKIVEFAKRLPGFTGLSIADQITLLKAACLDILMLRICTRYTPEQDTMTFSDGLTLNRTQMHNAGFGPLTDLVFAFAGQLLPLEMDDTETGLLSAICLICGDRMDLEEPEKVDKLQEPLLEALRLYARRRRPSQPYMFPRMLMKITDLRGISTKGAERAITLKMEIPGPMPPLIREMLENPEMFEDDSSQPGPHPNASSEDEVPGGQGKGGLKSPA

[4] = biological target: T4, Retinoic acid receptor RXR-alpha (Homo sapiens, UniProt P19793)
T4 sequence (P19793 whole entry): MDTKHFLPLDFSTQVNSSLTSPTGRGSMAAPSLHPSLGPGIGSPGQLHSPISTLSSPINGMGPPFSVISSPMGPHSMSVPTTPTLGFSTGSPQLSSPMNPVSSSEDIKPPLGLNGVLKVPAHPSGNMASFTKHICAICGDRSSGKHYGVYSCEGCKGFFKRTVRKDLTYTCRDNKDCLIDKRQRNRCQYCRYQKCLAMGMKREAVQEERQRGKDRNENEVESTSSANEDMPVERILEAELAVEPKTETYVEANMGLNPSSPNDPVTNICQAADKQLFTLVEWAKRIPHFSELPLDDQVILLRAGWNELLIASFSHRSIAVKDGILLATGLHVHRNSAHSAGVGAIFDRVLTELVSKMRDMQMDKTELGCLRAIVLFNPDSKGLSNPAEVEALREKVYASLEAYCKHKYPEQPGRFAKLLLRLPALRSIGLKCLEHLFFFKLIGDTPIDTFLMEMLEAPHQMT

[5] = biological target: T2, Retinoic acid receptor beta; test: Transcriptional activation for RAR beta receptor; not active (EC50>10e4 nM)
[6] = biological target: T4, Retinoic acid receptor RXR-alpha; test: Transcriptional activation for RXR alpha receptor
[7] = biological target: T1, Retinoic acid receptor alpha; test: Transcriptional activation for RAR alpha receptor; not active (EC50>10e4 nM)
[8] = biological target: T3, Retinoic acid receptor gamma; test: Transcriptional activation for RAR gamma receptor; not active (EC50>10e4 nM)

Q: Which EC50 [1] does the source give for `CC1(C)CCC(C)(C)c2cc(/C=C/c3ccc(C(=O)O)cc3)ccc21` here?
A: Its EC50 is 0.011 µM.

Q: What about the EC50 [2] of the same compound?
A: The EC50 was 0.0004 µM.

Q: What about the EC50 [3] of the same compound?
A: Its EC50 is 0.0004 µM.

Q: What about the EC50 [4] of the same compound?
A: The EC50 was “Not Active”.

Q: With `CC(=Cc1ccc(C(=O)O)cc1)c1cc2c(cc1C)C(C)(C)CCC2(C)C` as the compound, how does the EC50 [5] read?
A: Its EC50 is “Not Active”.

Q: And the EC50 [6]?
A: Its EC50 is greater than 6.4 µM.

Q: And the EC50 [7]?
A: The EC50 was “Not Active”.

Q: What about the EC50 [8] of the same compound?
A: Its EC50 is “Not Active”.

Q: For `C/C(=C\c1ccc(C(=O)O)cc1)c1ccc2c(c1)C(C)(C)CCC2(C)C`, which EC50 [4] is on record?
A: The EC50 was “Not Active”.

Q: `C/C(=C\c1ccc(C(=O)O)cc1)c1cc2c(cc1Br)C(C)(C)CCC2(C)C` was tested. Which EC50 [6] did it give?
A: The EC50 was 0.298 µM.

Q: And the EC50 [1]?
A: The EC50 was 0.989 µM.

Q: And the EC50 [2]?
A: The EC50 was 0.021 µM.

Q: And the EC50 [3]?
A: Its EC50 is 0.091 µM.

Q: Which results are given for `CCc1cc2c(cc1/C(C)=C/c1ccc(C(=O)O)cc1)C(C)(C)CCC2(C)C`?
A: EC50 [6]: 2.22 µM; EC50 [7]: Not Active; EC50 [2]: 0.961 µM; EC50 [3]: 0.195 µM

Q: For `C/C(=C\c1ccc2c(c1)C(C)(C)CCC2(C)C)c1ccc(C(=O)O)cc1`, which EC50 [1] is on record?
A: Its EC50 is 0.024 µM.

Q: What about the EC50 [2] of the same compound?
A: The EC50 was 0.0005 µM.

Q: And the EC50 [3]?
A: The EC50 was 0.0004 µM.

Q: What about the EC50 [4] of the same compound?
A: Its EC50 is “Not Active”.

Q: For `C/C(=C\c1ccc(C(=O)O)cc1)c1cc2c(cc1C)C(C)(C)CCC2(C)C`, which EC50 [6] is on record?
A: Its EC50 is 0.385 µM.

Q: What about the EC50 [1] of the same compound?
A: The EC50 was 4.58 µM.

Q: And the EC50 [2]?
A: The EC50 was 0.074 µM.

Q: And the EC50 [3]?
A: Its EC50 is 0.152 µM.

Q: For `C/C(=C\c1ccc(C(=O)O)cc1)c1cc2c(cc1Cl)C(C)(C)CCC2(C)C`, which EC50 [6] is on record?
A: The EC50 was 0.275 µM.

Q: What about the EC50 [1] of the same compound?
A: Its EC50 is greater than 1 µM.

Q: And the EC50 [2]?
A: Its EC50 is 0.021 µM.

Q: And the EC50 [3]?
A: The EC50 was 0.077 µM.

Q: What does the source list for `Cc1cc2c(cc1/C=C/c1ccc(C(=O)O)cc1)C(C)(C)CCC2(C)C`?
A: EC50 [1]: 0.015 µM; EC50 [2]: 0.0004 µM; EC50 [3]: 0.0014 µM; EC50 [4]: Not Active
